Laboratory results: patent US8524781B2, “Organosulfur compounds, a method of making organosulfur compounds and their use for inhibiting the growth of tumour cells” (University of Cape Town, priority 2008, dated 2013)
Like-named read-outs stand apart in the source and are kept apart here.

Experiments:
Format in all cases: cell-based
[1] = system: WHCO1 cells; assay: MTT assay, inhibition of cell growth of WHCO1 cells; details: for IC50: WHCO1 oesophageal epithelial cancer cells, MTT, 48 hours incubation
Description: (§1) The compounds were evaluated for their in vitro ability to inhibit cell growth of cultured tumour cells using the 3-(4,5-dimethylthiazol-2-yl)-2,5-diphenyltetrazolium bromide (MTT) assay. These cell types include:
3. WHCO1 cells which are oesophageal epithelial cancer cells; and
(§2) One oesophageal squamous cell carcinoma cell line WHCO1 originally established from surgical biopsies of primary oesophageal squamous cell carcinomas, a transformed fibroblast cell line CT-1 or human breast epithelial cells MDA-MB-231 were cultured in DMEM containing 10% foetal calf serum and 1% penicillin and streptomycin at 37° C. in a humidified atmosphere of 5% CO2. For the MTT assay, 3×10^3 cells were plated in 96-well plates in 90 μL DMEM per well. Compounds solubilized in DMEM+1% DMSO (10 μl) were added to cells and DMEM+1% DMSO, (10 μl) alone was added to the control to give a final concentration of 0-200 μM compound and 0.1% DMSO. After 48 hours incubation period, 10 μL of the MTT labelling reagent (final concentration 0.45 mg/ml) was added to each well and incubated for 4 hours in a humidified atmosphere at 37° C. One hundred micro litres of the solubilization solution was added to each well and the plates were incubated overnight at 37° C. The spectrophotometric absorbance of the wells was measured at 595 nm using a microtiter plate reader.

[2] = system: CT-1 cells; assay: MTT assay, inhibition of cell growth of CT-1 cells; details: CT-1 transformed WI38 fibroblasts, 48 hours incubation, read-out: CT1 IC50
Description: as §1
2. CT-1 cells which are transformed WI38 fibroblasts;
as §2

[3] = system: MDA-MB-231 cells; assay: MTT assay, inhibition of cell growth of MDA-MB-231 cells; details: MDA-MB-231 human breast epithelial cancer cells, 48 hours incubation
Description: as §1
5. MDA-MB-231 cells which are human breast epithelial cancer cells; and
as §2

Structure (SMILES) | IC50 ([1]; WHCO1, 48 h) [µM] | IC50 ([2]; Homo sapiens, WI-38, 48 h) [µM] | IC50 [3] [µM] | IC50 [1] [µM] | activity relative to ajoene at inhibiting growth of WHCO1 oesophageal cancer cells in vitro ([1]; compared with ajoene, WHCO1 cells) | IC50 [2] [µM]
C=CCSSC=CC[S+]([O-])Cc1ccc(OC)cc1 (mixture of isomers) [EZ-8, (E/Z)-10-(p-methoxyphenyl)-4,5,9-trithiadeca-1,6-diene-9-oxide] | 7.12 | 11.2 | 6.6 | – | – | –
COc1ccc(CSSC=CC[S+]([O-])Cc2ccc(OC)cc2)cc1 (mixture of isomers) [EZ-11, (E/Z)-1-(p-methoxyphenyl)-8-(p-methoxyphenyl)-2,3,7-trithiaocta-4-ene-7-oxide] | – | – | 0.82 | 1.34 | fifteen times more active than ajoene | –
CCCSSC=CC[S+]([O-])CCC (mixture of isomers) [Compound E-14, (E/Z)-4,5,9-trithiadodeca-6-ene-9-oxide] | – | – | – | 33.8 | – | 9.32
C=CCSSC=CC[S+]([O-])CCCOCc1ccc(OC)cc1 (mixture of isomers) [Compound Z-9, (E/Z)-12-(p-methoxybenzyloxy)-4,5,9-trithiadodeca-1,6-diene-9-oxide] | – | – | – | 16.9 | – | 21.7
C=CCSSC=CC[S+]([O-])CCCOCc1ccc(OC)cc1 (mixture of isomers) [Compound E-9, (E/Z)-12-(p-methoxybenzyloxy)-4,5,9-trithiadodeca-1,6-diene-9-oxide] | – | – | – | 19.1 | – | 23.5
CCC[S+]([O-])CC=CSSC (mixture of isomers) [Compound E-15, (E/Z)-2,3,7-trithiadeca-4-ene-7-oxide] | – | – | – | 47.4 | – | 10.3
C=CCSSC=CC[S+]([O-])Cc1ccccc1 (mixture of isomers) [EZ-7, (E/Z)-10-phenyl-4,5,9-trithiadeca-1,6-diene-9-oxide] | 8.8 | 16.6 | – | – | – | –
COc1ccc(C[S+]([O-])CC=CSSCc2ccccc2)cc1 (mixture of isomers) [EZ-12, (E/Z)-1-phenyl-8-(p-methoxyphenyl)-2,3,7-trithiaocta-4-ene-7-oxide] | 3.05 | – | 1.19 | – | – | –
C=CCSS/C=C/C[S+]([O-])CC=C (stereo not drawn) [Z-ajoene, 4,5,9-trithiadodeca-1,6,11-triene-9-oxide, reference compound] | – | – | – | 20.5 | – | 15.5
C=CCSS/C=C\C[S+]([O-])CCC (mixture of isomers) [Compound Z-3, (E/Z)-4,5,9-trithiadodeca-1,6-diene-9-oxide] | 21.6 | 17 | 19.2 | – | – | –
C=CCSSC=CC[S+]([O-])CCCO (mixture of isomers) [Compound Z-4, (E/Z)-4,8,9-trithiadodeca-6,11-diene-1-ol-4-oxide] | – | – | – | 37.9 | – | 22.8
C=CCSSC=CC[S+]([O-])CCCN1C(=O)c2ccccc2C1=O (mixture of isomers) [Compound E-5, (E/Z)-12-phthalimido-4,5,9-trithiadodeca-1,6-diene-9-oxide] | – | – | – | 68.9 | – | 95.9
C=CCSSC=CC[S+]([O-])CCCO (mixture of isomers) [Compound E-4, (E/Z)-4,8,9-trithiadodeca-6,11-diene-1-ol-4-oxide] | – | – | – | 26.8 | – | 23.1
C=CCSSC=CC[S+]([O-])C(C)(C)C (mixture of isomers) [EZ-6, (E/Z)-10,10-dimethyl-4,5,9-trithiaundeca-1,6-diene-9-oxide] | – | – | – | 25.4 | – | 33.1
C=CCSS/C=C/C[S+]([O-])CCC (mixture of isomers) [Compound E-3, (E/Z)-4,5,9-trithiadodeca-1,6-diene-9-oxide] | 35.8 | 26.7 | 25.9 | – | – | –
COc1ccc(C[S+]([O-])CC=CSSCc2ccc(F)cc2)cc1 (mixture of isomers) [EZ-10, (E/Z)-1-(p-fluorophenyl)-8-(p-methoxyphenyl)-2,3,7-trithiaocta-4-ene-7-oxide] | – | – | – | 13.6 | – | –
C=CCSS/C=C/C[S+]([O-])CC=C (stereo not drawn) [E-ajoene, 4,5,9-trithiadodeca-1,6,11-triene-9-oxide, reference compound] | 20.9 | 17.6 | – | – | – | –
C=CCSSC=CC[S+]([O-])CCCN1C(=O)c2ccccc2C1=O (mixture of isomers) [Compound Z-5, (E/Z)-12-phthalimido-4,5,9-trithiadodeca-1,6-diene-9-oxide] | – | – | – | 36 | – | 34.6
CCC[S+]([O-])CC=CSSCCCNS(=O)(=O)c1cccc2c(N(C)C)cccc12 (mixture of isomers) [EZ-13, (E/Z)-1-(dansylamino)-4,5,9-trithiadodeca-6-ene-9-oxide] | – | – | 42.6 | 14.2 | – | 17.7
